Data on 13 compounds can be found in the SangsterLogP compilation.

Compound `CC(C)OC(=O)[C@@H](N)Cc1ccc(O)cc1` displayed a log partition coefficient (logP) of 0.99. The compound `N[C@@H](Cc1ccc(O)cc1)C(=O)Oc1ccc([N+](=O)[O-])cc1` had a lipophilicity (logP) of 1.62. As for `CCOC(=O)[C@@H](N)Cc1ccc(O)cc1`, the lipophilicity (logP) is 0.6.

In turn, `N[C@@H](Cc1ccccc1)C(=O)OCc1ccccc1` showed a log partition coefficient (logP) of 2.48.

Regarding `N[C@@H](Cc1ccc(O)c(O)c1)C(=O)OC1CCOC1` (stereo partly drawn), the lipophilicity (logP) was -0.45. The value for `CCC(C)OC(=O)[C@@H](N)Cc1ccc(O)cc1` (stereo partly drawn) was 1.59. The compound `COC(=O)[C@@H](N)Cc1ccc(O)cc1` registered a logP of 0.18. In the case of `CC(C)OC(=O)[C@@H](N)Cc1ccc(O)c(O)c1`, the lipophilicity (logP) is 0.52.

`CC(C)(C)OC(=O)[C@@H](N)Cc1ccc(O)c(O)c1` gave a logP of 0.81. The value for `COC(=O)[C@@H](N)Cc1ccc(O)c(O)c1` was -0.28; that for `CCC(C)OC(=O)[C@@H](N)Cc1ccc(O)c(O)c1` (stereo partly drawn) was 0.93. `N[C@@H](Cc1ccc(O)c(O)c1)C(=O)OCC1CCCO1` (stereo partly drawn) showed a logP of 0.01. `CC(C)(C)OC(=O)N[C@@H](Cc1ccc(O)c(O)c1)C(=O)O`: the logP was -1.86.
